Key:
ACC2 [1] = biological target: T1, ACC2 (Homo sapiens (Human), UniProt O00763); test: Human ACC2 enzyme assay A2 (HTRF ADP immunoassay); format: biochemical; conditions: read-out: ACC 2 (=A2) IC50
From the text: The ACC2 inhibition data were obtained using two different assays (A2 and B2)
Target sequence in this assay (O00763 39-2458 limits assumed): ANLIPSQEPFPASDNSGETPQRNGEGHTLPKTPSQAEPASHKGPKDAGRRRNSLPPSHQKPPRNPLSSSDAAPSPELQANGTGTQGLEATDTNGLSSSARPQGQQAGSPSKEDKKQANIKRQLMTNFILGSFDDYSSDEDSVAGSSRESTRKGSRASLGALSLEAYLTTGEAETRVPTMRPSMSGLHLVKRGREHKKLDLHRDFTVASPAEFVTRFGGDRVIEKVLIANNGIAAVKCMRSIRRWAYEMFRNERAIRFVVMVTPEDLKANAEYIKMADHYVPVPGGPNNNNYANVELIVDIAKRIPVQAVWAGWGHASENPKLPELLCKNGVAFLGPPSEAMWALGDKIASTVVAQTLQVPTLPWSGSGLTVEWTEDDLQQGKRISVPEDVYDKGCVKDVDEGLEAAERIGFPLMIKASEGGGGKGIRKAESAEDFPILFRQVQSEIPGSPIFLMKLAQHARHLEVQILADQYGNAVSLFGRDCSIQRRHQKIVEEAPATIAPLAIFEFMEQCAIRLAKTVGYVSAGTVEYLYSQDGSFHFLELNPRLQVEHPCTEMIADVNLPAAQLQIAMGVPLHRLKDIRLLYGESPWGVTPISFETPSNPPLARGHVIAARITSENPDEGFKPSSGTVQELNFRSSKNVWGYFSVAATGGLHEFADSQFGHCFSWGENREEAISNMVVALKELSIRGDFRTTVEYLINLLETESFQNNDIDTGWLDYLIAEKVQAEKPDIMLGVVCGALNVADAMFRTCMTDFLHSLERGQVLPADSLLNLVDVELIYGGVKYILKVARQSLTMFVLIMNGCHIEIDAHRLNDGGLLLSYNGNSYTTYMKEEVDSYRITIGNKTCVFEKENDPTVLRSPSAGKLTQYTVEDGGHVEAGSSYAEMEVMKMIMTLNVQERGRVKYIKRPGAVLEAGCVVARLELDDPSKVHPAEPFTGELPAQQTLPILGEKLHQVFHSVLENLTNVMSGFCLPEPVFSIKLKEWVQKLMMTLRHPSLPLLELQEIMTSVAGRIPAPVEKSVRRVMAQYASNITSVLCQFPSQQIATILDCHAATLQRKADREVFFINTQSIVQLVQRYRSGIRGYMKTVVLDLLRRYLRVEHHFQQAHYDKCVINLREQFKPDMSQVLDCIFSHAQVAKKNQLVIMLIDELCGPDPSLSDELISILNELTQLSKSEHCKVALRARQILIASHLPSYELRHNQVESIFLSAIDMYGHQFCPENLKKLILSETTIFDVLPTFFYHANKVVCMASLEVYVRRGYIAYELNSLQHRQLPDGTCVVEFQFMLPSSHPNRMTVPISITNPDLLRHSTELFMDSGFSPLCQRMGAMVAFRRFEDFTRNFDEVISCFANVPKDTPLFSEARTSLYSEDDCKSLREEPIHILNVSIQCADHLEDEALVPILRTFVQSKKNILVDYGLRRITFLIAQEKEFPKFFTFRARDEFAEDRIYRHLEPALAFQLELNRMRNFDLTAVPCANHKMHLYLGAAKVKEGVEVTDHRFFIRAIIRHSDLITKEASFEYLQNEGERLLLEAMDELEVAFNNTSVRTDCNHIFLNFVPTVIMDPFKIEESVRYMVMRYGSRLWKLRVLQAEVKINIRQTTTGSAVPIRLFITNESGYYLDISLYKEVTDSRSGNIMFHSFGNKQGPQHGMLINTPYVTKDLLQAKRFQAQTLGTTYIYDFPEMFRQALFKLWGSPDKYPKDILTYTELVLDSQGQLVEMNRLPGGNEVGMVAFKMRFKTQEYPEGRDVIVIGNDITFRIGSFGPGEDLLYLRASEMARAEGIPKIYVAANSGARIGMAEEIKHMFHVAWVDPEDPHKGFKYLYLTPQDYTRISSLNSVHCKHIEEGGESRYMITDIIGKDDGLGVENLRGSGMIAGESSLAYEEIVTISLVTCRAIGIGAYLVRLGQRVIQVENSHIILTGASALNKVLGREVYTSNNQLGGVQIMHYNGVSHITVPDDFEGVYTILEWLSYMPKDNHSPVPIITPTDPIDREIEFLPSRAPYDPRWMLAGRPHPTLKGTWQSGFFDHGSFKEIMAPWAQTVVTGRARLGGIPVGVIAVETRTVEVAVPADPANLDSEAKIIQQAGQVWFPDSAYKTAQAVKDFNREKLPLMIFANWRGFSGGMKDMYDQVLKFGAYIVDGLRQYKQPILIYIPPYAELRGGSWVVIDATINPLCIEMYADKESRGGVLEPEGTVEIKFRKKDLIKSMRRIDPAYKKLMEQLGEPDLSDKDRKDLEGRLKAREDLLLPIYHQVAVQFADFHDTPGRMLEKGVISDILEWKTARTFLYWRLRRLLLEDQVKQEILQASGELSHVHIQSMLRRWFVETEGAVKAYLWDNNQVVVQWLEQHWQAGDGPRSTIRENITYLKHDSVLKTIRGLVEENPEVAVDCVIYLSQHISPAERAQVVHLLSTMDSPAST

ACC2 [2] = biological target: T1, ACC2; test: Human ACC2 enzyme assay B2 (ADP-Glo); format: biochemical; conditions: read-out: ACC 2 (=B2) IC50
Target sequence in this assay (O00763 27-2458 limits assumed): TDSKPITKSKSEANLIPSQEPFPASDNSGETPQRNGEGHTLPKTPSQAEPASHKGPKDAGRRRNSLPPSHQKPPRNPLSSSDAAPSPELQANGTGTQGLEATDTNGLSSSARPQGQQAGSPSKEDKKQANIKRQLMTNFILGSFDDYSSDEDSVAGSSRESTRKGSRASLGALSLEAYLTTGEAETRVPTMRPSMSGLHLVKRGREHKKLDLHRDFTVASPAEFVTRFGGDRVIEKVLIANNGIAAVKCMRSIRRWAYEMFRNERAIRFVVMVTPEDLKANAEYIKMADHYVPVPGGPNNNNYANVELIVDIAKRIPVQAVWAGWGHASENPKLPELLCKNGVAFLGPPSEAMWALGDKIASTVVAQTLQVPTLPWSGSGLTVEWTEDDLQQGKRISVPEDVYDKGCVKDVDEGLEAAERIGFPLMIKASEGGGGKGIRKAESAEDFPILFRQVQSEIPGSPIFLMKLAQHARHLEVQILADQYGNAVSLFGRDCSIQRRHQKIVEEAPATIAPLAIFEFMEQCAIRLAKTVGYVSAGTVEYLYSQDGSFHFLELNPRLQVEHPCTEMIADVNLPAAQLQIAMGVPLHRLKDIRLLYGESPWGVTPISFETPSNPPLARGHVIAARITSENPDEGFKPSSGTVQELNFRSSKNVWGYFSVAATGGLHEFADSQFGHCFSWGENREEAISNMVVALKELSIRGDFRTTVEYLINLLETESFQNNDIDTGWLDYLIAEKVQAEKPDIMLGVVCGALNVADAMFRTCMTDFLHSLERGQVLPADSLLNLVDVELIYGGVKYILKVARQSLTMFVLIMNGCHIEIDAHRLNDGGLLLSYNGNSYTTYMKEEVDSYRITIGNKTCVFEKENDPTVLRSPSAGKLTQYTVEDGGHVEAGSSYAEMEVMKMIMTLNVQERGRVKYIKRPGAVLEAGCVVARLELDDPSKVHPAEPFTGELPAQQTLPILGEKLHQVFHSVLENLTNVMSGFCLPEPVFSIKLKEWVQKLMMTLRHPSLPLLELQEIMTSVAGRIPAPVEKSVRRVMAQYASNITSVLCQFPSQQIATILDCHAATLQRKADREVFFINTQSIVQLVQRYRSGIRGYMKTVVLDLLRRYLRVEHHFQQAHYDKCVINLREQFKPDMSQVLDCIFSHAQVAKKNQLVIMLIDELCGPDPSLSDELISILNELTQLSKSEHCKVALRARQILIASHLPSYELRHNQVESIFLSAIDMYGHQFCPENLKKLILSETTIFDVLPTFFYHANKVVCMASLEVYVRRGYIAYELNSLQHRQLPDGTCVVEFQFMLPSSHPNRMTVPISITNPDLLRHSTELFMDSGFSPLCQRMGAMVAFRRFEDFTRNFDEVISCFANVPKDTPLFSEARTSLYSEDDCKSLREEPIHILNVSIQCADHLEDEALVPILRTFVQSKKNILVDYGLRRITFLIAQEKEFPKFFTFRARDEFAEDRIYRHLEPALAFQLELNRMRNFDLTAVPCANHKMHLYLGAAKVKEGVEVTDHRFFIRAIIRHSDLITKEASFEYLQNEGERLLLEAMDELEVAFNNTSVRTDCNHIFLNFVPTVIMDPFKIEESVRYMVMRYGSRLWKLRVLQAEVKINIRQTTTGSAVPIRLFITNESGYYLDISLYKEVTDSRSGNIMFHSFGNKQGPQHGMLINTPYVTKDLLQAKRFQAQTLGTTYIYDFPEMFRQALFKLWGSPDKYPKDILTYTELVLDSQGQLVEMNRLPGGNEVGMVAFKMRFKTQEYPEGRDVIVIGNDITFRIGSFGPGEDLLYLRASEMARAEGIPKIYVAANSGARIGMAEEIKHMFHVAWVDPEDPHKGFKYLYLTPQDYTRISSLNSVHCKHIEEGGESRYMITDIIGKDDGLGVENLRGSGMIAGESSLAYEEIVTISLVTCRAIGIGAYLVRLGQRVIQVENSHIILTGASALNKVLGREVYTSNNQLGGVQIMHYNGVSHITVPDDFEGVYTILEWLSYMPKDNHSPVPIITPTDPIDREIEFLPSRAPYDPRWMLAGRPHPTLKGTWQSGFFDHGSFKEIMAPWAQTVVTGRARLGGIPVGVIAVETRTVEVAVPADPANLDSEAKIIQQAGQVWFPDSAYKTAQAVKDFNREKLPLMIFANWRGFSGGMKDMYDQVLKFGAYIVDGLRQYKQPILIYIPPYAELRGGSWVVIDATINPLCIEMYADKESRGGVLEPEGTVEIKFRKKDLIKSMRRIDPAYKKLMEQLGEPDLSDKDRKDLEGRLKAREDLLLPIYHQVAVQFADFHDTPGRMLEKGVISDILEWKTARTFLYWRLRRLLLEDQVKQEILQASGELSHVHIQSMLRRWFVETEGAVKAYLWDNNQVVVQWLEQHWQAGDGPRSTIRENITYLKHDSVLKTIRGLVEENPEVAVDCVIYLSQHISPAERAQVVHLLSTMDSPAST
Description: Essentially, the enzyme activity is measured by quantifying the adenosine diphosphate (ADP) formed as a byproduct of the enzyme reactions using the ADP-Glo™ detection system from Promega. In this test, initially the adenosine triphosphate (ATP) not consumed in the enzyme reaction is converted quantitatively with an adenylate cyclase (“ADP-GLO reagent”) into cAMP, the adenylate cyclase is then stopped and (“kinase detection reagent”) the ADP formed is subsequently converted into ATP, which is converted in a luciferase-based reaction into a glow luminescence signal.
Typical concentrations were in the range of 2 ng/μl. […] The amount of light emitted was taken as a measure for the amount of ADP formed and thus for the enzyme activity of the hACC2.

[3] = Maximum tolerated dose (MTD) determination, oral; format: in vivo, female nude mice (NMRI nu/nu); conditions: for MTD at 21 days: 21-day treatment with 1 administration per day
Description: To this end, initially the maximum tolerable dose (MTD) was determined using the following protocol:
Over a period of 1, 2 or 3 weeks, a defined dose of the test substance was administered orally to female nude mice (NMRI-nude (nu/nu) mice, Taconic M&B A/S), and the mice were observed daily for mortality and body weight. The MTD was defined as the highest dose which could be administered without any animal dying during the treatment phase and the 7-day additional observation phase, and without any body weight loss of more than 10% compared to the initial weight.
Comparative Example C.1 was administered to female nude mice (NMRI nu/nu): • Dose: see Tab. 3 • Mode of administration: oral • Vehicle: PEG400/ethanol/Solutol HS 15(70/5/25, v/v/v) • (Solutol HS15: polyoxyethylene ester of 12-hydroxystearic acid) • Administration volume: 10 ml/kg • Scheme: see Tab. 3
The treatment phase was followed by an observation phase of 7 days.
Compound A was administered to female nude mice (NMRI nu/nu): • Dose: see Tab. 4 • Mode of administration: oral • Vehicle: PEG400/ethanol/Solutol HS 15(70/5/25, v/v/v) • Administration volume: 10 ml/kg • Scheme: see Tab. 4

human MCF-7 cells = test: MCF-7 breast cancer xenograft model; format: in vivo, female nude mice (NMRI nu/nu); conditions: for T/C (based on tumour area) / T/C (based on tumour weight): 30 days, once per day
Description: Xenograft models in immunosuppressed mice were used to determine the antitumour activity in living organisms.
Various xenograft models in which the test substances were administered in their MTD and in lower doses were then used to determine the antitumour activity. In addition to various other models, use was made primarily of the breast cancer model with hormone-dependent human MCF-7 cells in female nude mice (NMRI-nude (nu/nu) mice, Taconic M&B A/S). To this end, on the day prior to the implantation of the tumour cells, a pellet for releasing oestrogen (17β-oestradiol 0.36 mg, release over 60 days) was administered subcutaneously to the mice. The next day, 2 million tumour cells (suspended in medium+Matrigel) 1:1, final 0.1 ml) were then injected subcutaneously into the side of each animal. When the tumours extended to an area of 20-25 mm^2, the mice were randomized into therapy groups and therapy was initiated. The therapy was then continued until an average tumour size of 120 mm^2 had been reached in the control group, which had only been given the vehicle of the test substance, or in one of the treatment groups, with tumour area and body weight being measured 2-3 times per week. At this point in time, the experiment was terminated in all groups and the excised tumours were weighed.
The T/C value was calculated as primary success parameter either using the effect on the tumour weight or using the effect on the tumour area: mean tumour weight/area in the treatment group divided by mean of the tumour weight/area in the vehicle group.
Comparative Example C.1 was subsequently administered to female nude mice (NMRI nu/nu) in the MCF-7 breast cancer xenograft model: • Dose: 7.5 mg/kg • Mode of administration: oral • Vehicle: PEG400/ethanol/Solutol HS 15(70/5/25, v/v/v) • Administration volume: 10 ml/kg • Scheme: 27 days, 2 times per day (2 qd) • Mice: 10
Compound A was subsequently administered to female nude mice (NMRI nu/nu) in the MCF-7 breast cancer xenograft model: • Dose: see Tab. 5 • Mode of administration: oral • Vehicle: PEG400/ethanol/Solutol HS 15(70/5/25, v/v/v) • Administration volume: 10 ml/kg • Scheme: 30 days, once per day (qd) • Mice per dose group: 10-13
For the statistical evaluation of the experiment, the non-parametric ANOVA test was used for the T/C values based on the tumour area, since there was no normal distribution of the measured values. All therapy groups were then compared to the vehicle group using Dunns Post test. The resulting p values are shown in the table (ns: not significant=p>0.05). Since there was a normal distribution of the T/C values based on tumour weight, the ANOVA test for parametric values was used for analysis. All therapy groups were then compared to the vehicle group using the Bonferroni Post test.

LNCaP = test: Cell assay, tumour cell proliferation (CellTiter-Glo, 96 h); format: cell-based; conditions: Homo sapiens, 96-hour incubation
Description: (§1) In accordance with the invention, the substances were tested in cell-based assays for the ability of the substances of inhibiting tumour cell proliferation after a 96-hour incubation with the substance. Cell viability was tested using the CellTiter-Glo® luminescent cell viability assay (Promega). The cells were sown at a density of 2000-5000 cells/well (depending on the cell line) in 100 μl growth medium on 96-well microtitre plates. For each cell line examined, cells were sown on a separate plate to determine the luminescence at t=0 hours and t=96 hours. After overnight incubation at 37° C., the luminescence values for the t=0 samples were determined. The dose plates for the t=96 hours points in time were treated with substances diluted with growth medium. The cells were then incubated at 37° C. for 96 hours, and the luminescence values for the t=96 hours sample were then determined/For data analysis, the t=0 values were subtracted from the t=96 hour values for treated and untreated samples. The differences in luminescence in percent between substance-treated samples and control values were used to determine the growth inhibition in percent.
(§2) The substances were tested in the following cell lines which represent the stated indications in an exemplary manner: […]

DAN-G = test: as above; format: cell-based; conditions: 96-hour incubation
Description: as §1, §2

CAL-120 = test: as above; format: cell-based; conditions: Homo sapiens, 96-hour incubation
Description: as §1, §2

BxPC3 = test: as above; format: cell-based; conditions: Homo sapiens, BXPC-3; 96-hour incubation
Description: as §1, §2

H460 = test: as above; format: cell-based; conditions: Homo sapiens, NCI-H460; 96-hour incubation
Description: as §1, §2

BT-20 = test: as above; format: cell-based; conditions: Homo sapiens, 96-hour incubation
Description: as §1, §2

SNU16 = test: as above; format: cell-based; conditions: Homo sapiens, SNU-16; 96-hour incubation
Description: as §1, §2

[4] = 7.5 mg/kg oral 2 qd, up to day 37 of the experiment

Work on `COC1CCC2(C=C(c3cc(-c4ccc(Cl)c(Cl)c4)ccc3C)C(=O)N2)CC1` (stereo not shown) [Comparative Example C.2] yielded an IC50 (ACC2 [1]) of 1410 nM and an IC50 (ACC2 [2]) of 2610 nM.

For `CO[C@H]1CC[C@]2(CC1)NC(=O)C(c1cc(-c3ccc(Cl)cc3)ccc1C)=C2O` [Comparative Example C.1, (5s,8s)-3-(4′-chloro-4-methylbiphenyl-3-yl)-4-hydroxy-8-methoxy-1-azaspiro[4.5]dec-3-en-2-one], the Deaths ([3]; 10 mg/kg oral, 14 days, 2 times a day) was 1 of 3, the Deaths ([3]; 15 mg/kg oral, 21 days, once per day (Table 3)) was 1 of 5 and the Deaths ([3]; 20 mg/kg oral, 14 days, 2 times a day) was 2 of 3. The Deaths ([3]; 20 mg/kg oral, 21 days, once per day (Table 3)) was 1 of 5, the Deaths ([3]; 25 mg/kg oral, 21 days, once per day (Table 3)) was 1 of 5 and the Deaths ([3]; 30 mg/kg oral, 14 days, 2 times a day) was 2 of 3. For the same compound, the MTD at 14 days ([3]; female, NMRI nu/nu, mouse, in vivo, po, 14-day treatment with 2 administrations per day) was under 10 mg/kg, the MTD at 21 days ([3]; female, NMRI nu/nu, mouse, in vivo, po) was under 15 mg/kg and the animals died (human MCF-7 cells; [4]) was 1 of 10. The bodyweight loss (human MCF-7 cells; [4]) was “low bodyweight loss”, the “T/C value based on tumour area” value (human MCF-7 cells; 7.5 mg/kg oral, 27 days, 2 times per day (2 qd)) was 0.86 and the Deaths (human MCF-7 cells; continued with 10 mg/kg 2 qd up to day 43) was 1 of 4. The Deaths (human MCF-7 cells; continued with 12.5 mg/kg 2 qd up to day 43) was 4 of 5.

In the case of `CO[C@H]1CC[C@]2(CC1)NC(=O)C(c1cc(-c3ccc(Cl)c(F)c3)ccc1C)=C2O` [Compound A, (5s,8s)-3-(4′-chloro-3′-fluoro-4-methylbiphenyl-3-yl)-4-hydroxy-8-methoxy-1-azaspiro[4.5]dec-3-en-2-one], the Deaths ([3]; 20 mg/kg oral, 21 days, once per day (Table 4)) is reported as 0 of 5, the Deaths ([3]; 30 mg/kg oral, 21 days, once per day (Table 4)) is reported as 0 of 5 and the Deaths ([3]; 40 mg/kg oral, 21 days, once per day (Table 4)) is reported as 1 of 5. For the same compound, the Deaths ([3]; 50 mg/kg oral, 21 days, once per day (Table 4)) was 5 of 5, the Deaths ([3]; 60 mg/kg oral, 21 days, once per day (Table 4)) was 5 of 5 and the MTD at 21 days ([3]; female, NMRI nu/nu (nude), mouse, in vivo, po) was under 40 mg/kg. The “T/C (based on tumour area)” value (human MCF-7 cells; 20 mg/kg oral) was 0.56 (ns), the “T/C (based on tumour weight)” value (human MCF-7 cells; 20 mg/kg oral) was 0.42 (p = 0.003) and the “T/C (based on tumour area)” value (human MCF-7 cells; 25 mg/kg oral) was 0.51 (p < 0.05). For the same compound, the “T/C (based on tumour weight)” value (human MCF-7 cells; 25 mg/kg oral) was 0.37 (p < 0.001), the “T/C (based on tumour area)” value (human MCF-7 cells; 30 mg/kg oral) was 0.49 (p < 0.05) and the “T/C (based on tumour weight)” value (human MCF-7 cells; 30 mg/kg oral) was 0.35 (p < 0.001). The “T/C (based on tumour area)” value (human MCF-7 cells; 35 mg/kg oral) was 0.44 (p < 0.05), the “T/C (based on tumour weight)” value (human MCF-7 cells; 35 mg/kg oral) was 0.31 (p < 0.001) and the “antitumoral efficacy (in words)” value (human MCF-7 cells; MCF-7 xenograft, summary statement) was “biologically meaningful and significant antitumoral effects”. For the same compound, the IC50 (LNCaP) was 334 nM, the IC50 (DAN-G) was 184 nM and the IC50 (CAL-120) was 266 nM. It also gave an IC50 (BxPC3) of 165 nM, an IC50 (H460) of 201 nM and an IC50 (BT-20) of 187 nM. It also gave an IC50 (SNU16) of 164 nM.
